Measured values reported in a compilation of properties of binary mixtures (doi:10.1021/acs.jced.0c00426).

Assay: xn = mol fraction of the nth substance listed
Conditions: 101.3 kPa

CCCCCCCCn1cc[n+](C)c1.F[B-](F)(F)F + CNc1ccccc1
speed of sound [m/s]
Conditions	x1 = 0.1032	x1 = 0.2037	x1 = 0.285	x1 = 0.383	x1 = 0.4978	x1 = 0.5939	x1 = 0.7016	x1 = 0.7942	x1 = 0.9002	x1 = 1
293.15 K	1582	1571	–	1549	1536	1526	–	1509	1502	1499
298.15 K	–	1555	1545	1533	1521	1512	1502	1495	1488	1485
303.15 K	1548	1538	1529	1518	1507	1499	1489	–	1475	1472
308.15 K	1531	1522	1513	1503	–	–	–	1469	1462	–
313.15 K	1514	–	1498	1489	1479	–	1463	1456	1450	1446
318.15 K	1496	1491	1483	–	1465	1458	1451	1444	1438	1433
323.15 K	1479	–	1468	1460	1451	1444	–	1431	1426	1421

CCCCCC[n+]1ccn(C)c1.F[B-](F)(F)F + CNc1ccccc1
x1 = 1
Conditions	speed of sound [m/s]
298.15 K	1519
303.15 K	1507
308.15 K	1494
313.15 K	1482
318.15 K	1470
323.15 K	1458

CCCC[n+]1ccn(C)c1.F[B-](F)(F)F + CNc1ccccc1
x1 = 1
Conditions	speed of sound [m/s]
303.15 K	1555
313.15 K	1532
318.15 K	1521
323.15 K	1511
